Laboratory results taken from paper PMC8131363 (Scientific Reports, 2021).

What was measured:
[1] = target: T1, hCaSR (Homo sapiens, UniProt P41180); assay: hCaSR transiently expressed in HEK293/natClytin, agonist luminescence assay; assay type: cell-based; settings: transiently expressed hCaSR; > 3 mM = maximal response not reached; read-out: hCaSR EC50
T1 construct: expressed in transfected cells; host or cells: HEK293/natClytin (transient, pcDNA6 as delivered by GeneArt)
T1 sequence (P41180 20-1078): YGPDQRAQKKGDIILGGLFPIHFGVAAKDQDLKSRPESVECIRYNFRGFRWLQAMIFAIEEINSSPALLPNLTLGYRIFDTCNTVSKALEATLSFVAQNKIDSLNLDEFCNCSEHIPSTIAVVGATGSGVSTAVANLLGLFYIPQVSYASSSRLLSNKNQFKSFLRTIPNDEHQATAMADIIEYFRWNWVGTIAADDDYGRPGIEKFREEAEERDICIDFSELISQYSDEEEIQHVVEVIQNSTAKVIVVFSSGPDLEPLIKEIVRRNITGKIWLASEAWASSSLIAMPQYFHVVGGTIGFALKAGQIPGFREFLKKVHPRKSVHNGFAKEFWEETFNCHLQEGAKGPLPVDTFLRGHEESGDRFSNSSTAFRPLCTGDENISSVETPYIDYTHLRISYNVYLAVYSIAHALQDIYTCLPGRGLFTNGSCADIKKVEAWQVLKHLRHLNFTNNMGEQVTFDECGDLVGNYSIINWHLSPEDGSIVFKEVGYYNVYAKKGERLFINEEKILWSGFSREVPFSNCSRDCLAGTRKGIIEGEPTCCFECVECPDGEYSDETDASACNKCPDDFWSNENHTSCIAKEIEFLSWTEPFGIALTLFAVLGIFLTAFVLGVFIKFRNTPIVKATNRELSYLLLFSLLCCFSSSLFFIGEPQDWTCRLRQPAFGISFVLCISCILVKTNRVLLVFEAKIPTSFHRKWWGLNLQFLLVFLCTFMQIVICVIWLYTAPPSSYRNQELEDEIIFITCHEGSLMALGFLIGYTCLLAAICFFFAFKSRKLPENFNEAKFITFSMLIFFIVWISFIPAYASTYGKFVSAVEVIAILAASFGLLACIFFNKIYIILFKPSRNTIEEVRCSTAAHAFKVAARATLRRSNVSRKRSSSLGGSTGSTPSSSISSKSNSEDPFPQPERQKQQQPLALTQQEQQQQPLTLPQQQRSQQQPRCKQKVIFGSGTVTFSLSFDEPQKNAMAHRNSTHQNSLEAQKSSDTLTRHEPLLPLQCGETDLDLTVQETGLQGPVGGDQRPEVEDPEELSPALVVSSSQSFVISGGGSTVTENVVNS
Experimental: The coding sequence of the Felis catus[52] and Homo sapiens[53] CaSR gene was synthesised by GeneArt (Thermo Fisher Scientific). The cat coding sequence was excised from the GeneArt construct and inserted in pcDNA3.1 for constitutive and transient expression or pcDNA5/ TO for inducible expression. For the human sequence the pcDNA6 vector as delivered by GeneArt was used without further sub-cloning.
All transient transfections were performed with Lipofectamine 2000 (Invitrogen) according to the manufacturer’s protocol.

[2] = system: domestic short hair cats; assay: two-bottle choice test, cat water panel; assay type: in vivo, Felis catus; settings: for intake of compound solution compared to water: n = 24, 18 h, CaCl2 at 8 mM; for preference for umami amino acid mix with compound vs amino acid mix alone: n = 24, mix 15 mM L-His, 15 mM L-Trp, 15 mM L-Phe
Experimental: Healthy neutered adult domestic short hair cats (Felis catus) formed the panel for all the choice tests described here (n = 24). […] All the cats taking part in the panel were individually fed dry adult cat food twice per day to their individual Maintenance Energy Requirements (MER). On test days, the cats were housed during 18 h overnight in purpose-built, behaviourally-enriched lodges. During the 18 h exposure, the cats only had access to the water solutions in the two-bottle testing apparatus, however they had free access to drinking water for the rest of the day when they were housed in a social group within an environmentally enriched room. All accommodation complied with the Code of Practice for Animal (Scientific Procedures) Act 1986. All solutions were made with deionised water (Purite, UK). All taste-active substances were food-grade or of the highest available purity. In some cases, salts were purchased instead of the pure compound due to solubility, stability or availability reasons. The in vivo testing was a two-bottle choice test and the methodology was adapted from[23]. All animal studies were in alignment with the Mars Animal Research Policy (Mars.com). These studies follow the 3Rs approach to experimentation with animals in scientific research[59] and were approved by the Waltham Animal Welfare and Ethical Review Board, and all the methods were carried-out in accordance with local guidelines and regulations, including the ARRIVE guidelines. […] The drinkers contained the test solution or the control solution, and the position of the drinkers presented to the cats was changed every day to control for any side bias, and each solution was offered twice to each cat. The cats were also offered at the same time as the water solutions, 50% of their daily food allowance. After 30 min. the food was removed and the cats were left in their individual lodges overnight, with access to the drinkers for 18 h. The next day the drinkers were weighed, and the remaining quantities were recorded as refused amounts. Total intakes were calculated using the difference of the offered and refused amounts. A correction for evaporation and any solution spillage was also performed on each data point. Using a bespoke statistical analysis toolkit, based on R software (R Foundation, Vienna, Austria), a mixed model analysis was performed on the difference in intake (g) between water solutions containing the different taste compound, including cat (random) as a factor and weighting by grouped cat specific variability. This was used to test the mean intake difference versus 0, i.e. no difference, at a 5% level. The mean difference in intake was reported with a 95% confidence interval. All individual tests were then combined into a single model and the difference between the tastant pairs (i.e. both conditions containing the kokumi tastant in water vs. in the umami amino acid mix) were directly compared to measure the impact of the compound on the intake of either water or the umami mix. Any data errors (e.g. following manual error such as solution spillage, overflow) were removed from the final data set for analysis.

Row | Structure (SMILES) | EC50 [1] [mM] | intake of compound solution compared to water [2] | preference for umami amino acid mix with compound vs amino acid mix alone [2]
1 | [Ca+2].[Cl-].[Cl-] [Ca^2+, CaCl2] | 0.8 | no significant difference | significant preference
2 | [Cl-].[Cl-].[Mg+2] [Mg^2+, MgCl2] | 3.9 | significantly lower acceptance | significantly rejected
3 | N[C@@H](CCC(=O)N[C@@H](CS)C(=O)NCC(=O)O)C(=O)O [Glutathione] | > 3 | significantly lower acceptance | no statistically significant difference
